From patent US9254261B2, “Stable quick dissolving dosage form comprising amoxicillin and clavulanic acid” (Sandoz AG, priority 2014, dated 2016)

Experiment: Stability of potassium clavulanate alone and in binary mixtures with excipients, stressed storage 7 days at 60° C.
Assay type: physicochemical
Conditions: after storage 7 days at 60° C.; control sample, no excipient
Experimental: In particular, the effect of different excipients and different mixture preparation conditions on the stability of the active ingredients was analyzed. […] In addition, two sets of compatibility studies with various excipients were conducted to investigate the influence of excipients on the stability of clavulanic acid and amoxicillin in the final dosage form. In the first study, a total of eight binary (i.e. two component) mixtures were prepared, each combining: […] (a) silicified microcrystalline cellulose, (b) low moisture silicified microcrystalline cellulose, having a moisture content of less than about 3.0%, (c) crospovidone, or (d) mannitol. […] After storage at a temperature of about 60° C. for about 7 days, each of the mixtures was then assayed to determine the amount of active ingredient remaining. Similarly, in the second study, a total of eight binary mixtures were prepared, each combining: […] (a) silicified microcrystalline cellulose, (b) low moisture silicified microcrystalline cellulose, (c) crospovidone, or (d) colloidal silicon dioxide. […] Further, each of the binary mixtures in the second study was prepared in a reduced moisture environment at a normal relative humidity (RH) of less than 30%. After storage at a temperature of about 60° C. for about 7 days, each of the mixtures was then assayed to determine the amount of active ingredient remaining.

SMILES: O=C(O)[C@H]1/C(=C/CO)O[C@@H]2CC(=O)N21 [Clavulanic acid (CA), potassium clavulanate]
- Assay of clavulanic acid (%): 94%
